# According to patent US6355799B1, “Substituted benzene compounds, process for their preparation, and herbicidal and defoliant compositions containing them” (ISK Americas Incorporated, priority 1997, dated 2002):
# How the values were obtained:
# Assay type in all cases: in vivo
# [1] = test system: barnyardgrass (Echinochloa crus-galli, ECHCG); experiment: Post-emerge test, greenhouse herbicide activity screening; conditions: rating scale 0-100 (0 no damage, 100 complete death), 14 days after application
# Outline: (§1)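 Visual ratings on a 0-100 scale (0 no damage, 100 all plants dead) were taken at 14 days after treatment. Rates of 15-1000 g ai/ha in acetone, 187 l/ha, were sprayed onto soil one day after planting (pre-emerge) or onto 2-3 leaf plants with 0.25% v/v surfactant (post-emerge).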
# [2] = test system: ivyleaf morningglory (Ipomoea hederacea, IPOHE); experiment: as above; conditions: rating scale 0-100 (0 no damage, 100 complete death), 14 days after application
# Outline: as §1
# [3] = test system: johnsongrass (Sorghum halepense, SORHA); experiment: as above; conditions: rating scale 0-100 (0 no damage, 100 complete death), 14 days after application
# Outline: as §1
# [4] = test system: green foxtail (Setaria viridis, SETVI); experiment: as above; conditions: rating scale 0-100 (0 no damage, 100 complete death), 14 days after application
# Outline: as §1
# [5] = test system: large crabgrass (Digitaria sanguinalis, DIGSA); experiment: as above; conditions: rating scale 0-100 (0 no damage, 100 complete death), 14 days after application
# Outline: as §1
# [6] = test system: lambsquarters (Chenopodium album, CHEAL); experiment: as above; conditions: rating scale 0-100 (0 no damage, 100 complete death), 14 days after application
# Outline: as §1
# [7] = test system: velvetleaf (Abutilon theophrasti, ABUTH); experiment: as above; conditions: rating scale 0-100 (0 no damage, 100 complete death), 14 days after application
# Outline: as §1
# [8] = test system: redroot pigweed (Amaranthus retroflexus, AMARE); experiment: as above; conditions: rating scale 0-100 (0 no damage, 100 complete death), 14 days after application
# Outline: as §1
# [9] = test system: sicklepod (Cassia obtusifolia, CASOB); experiment: as above; conditions: rating scale 0-100 (0 no damage, 100 complete death), 14 days after application
# Outline: as §1
# [10] = test system: common ragweed (Ambrosia artemisizfolia L., AMBEL); experiment: as above; conditions: rating scale 0-100 (0 no damage, 100 complete death), 14 days after application
# Outline: as §1
# [11] = test system: upland rice (Oryza sp., var. Tebonnet, RICE); experiment: Post-emerge test, crop safety; conditions: rating scale 0-100 (0 no damage, 100 complete death), 14 days after application
# Outline: (§2)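 Plants grown in 10 cm pots of sandy loam mix received acetone-dissolved compounds through a moving flat-fan nozzle. Doses ranged from 15 to 1000 g ai/ha. Pre-emerge pots were seeded one day earlier, post-emerge pots 8–21 days earlier. Fourteen days on, each pot was graded 0–100 for damage.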
# [12] = test system: field corn (Zea mays L., var. Dekalb 535, CORN); experiment: Post-emerge test, crop safety; conditions: rating scale 0-100 (0 no damage, 100 complete death), 14 days after application
# Outline: as §2
# [13] = test system: redroot pigweed (Amaranthus retroflexus, AMARE); experiment: Pre-emerge test, greenhouse herbicide activity screening; conditions: rating scale 0-100, 14 days after application
# Outline: as §2
# [14] = test system: upland rice (Oryza sp., var. Tebonnet, RICE); experiment: Pre-emerge test, crop safety; conditions: rating scale 0-100, 14 days after application
# Outline: (§3)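 Applied at 15–1000 g ai/ha from acetone in 187 l/ha spray volume. Post-emergence applications included 0.25% v/v non-ionic surfactant and reached plants sown 8–21 days before. Pre-emergence applications were incorporated by surface watering. Efficacy or crop damage was rated on a 0–100 scale after 14 days.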
# [15] = test system: field corn (Zea mays L., var. Dekalb 535, CORN); experiment: Pre-emerge test, crop safety; conditions: rating scale 0-100, 14 days after application
# Outline: as §3
# [16] = test system: barnyardgrass (Echinochloa crus-galli, ECHCG); experiment: Pre-emerge test, greenhouse herbicide activity screening; conditions: rating scale 0-100, 14 days after application
# Outline: (§4)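 Rating: 0–100 visual injury, 14 DAA. Application: acetone, 187 l/ha, 15–1000 g ai/ha, flat-fan track sprayer with nozzle 40–45 cm above soil or canopy. Post-emerge runs used 0.25% v/v surfactant on 2–3 leaf plants.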
# [17] = test system: ivyleaf morningglory (Ipomoea hederacea, IPOHE); experiment: as above; conditions: rating scale 0-100, 14 days after application
# Outline: as §4
# [18] = test system: johnsongrass (Sorghum halepense, SORHA); experiment: as above; conditions: rating scale 0-100, 14 days after application
# Outline: as §4
# [19] = test system: green foxtail (Setaria viridis, SETVI); experiment: as above; conditions: rating scale 0-100, 14 days after application
# Outline: as §4
# [20] = test system: large crabgrass (Digitaria sanguinalis, DIGSA); experiment: as above; conditions: rating scale 0-100, 14 days after application
# Outline: as §4
# [21] = test system: lambsquarters (Chenopodium album, CHEAL); experiment: as above; conditions: rating scale 0-100, 14 days after application
# Outline: as §4
# [22] = test system: velvetleaf (Abutilon theophrasti, ABUTH); experiment: as above; conditions: rating scale 0-100, 14 days after application
# Outline: as §4
# [23] = test system: sicklepod (Cassia obtusifolia, CASOB); experiment: as above; conditions: rating scale 0-100, 14 days after application
# Outline: as §4
structure (smiles),measurement,setting,value
"COc1c(Cl)cc(F)c(-n2c(=O)cc(C(F)(F)F)n(C)c2=O)c1CC(Cl)C(=O)OCC(F)(F)C(F)(F)C(F)(F)F (single isomer, unassigned) [14-23]","Post-emerge Herbicidal Activity, phytotoxicity rating ECHCG",[1]; Rate 63 g ai/ha,100
same,"Post-emerge Herbicidal Activity, phytotoxicity rating ECHCG",[1]; Rate 250 g ai/ha,100
same,"Post-emerge Herbicidal Activity, phytotoxicity rating IPOHE",[2]; Rate 63 g ai/ha,80
same,"Post-emerge Herbicidal Activity, phytotoxicity rating IPOHE",[2]; Rate 250 g ai/ha,95
same,"Post-emerge Herbicidal Activity, phytotoxicity rating SORHA",[3]; Rate 63 g ai/ha,40
same,"Post-emerge Herbicidal Activity, phytotoxicity rating SORHA",[3]; Rate 250 g ai/ha,50
same,"Post-emerge Herbicidal Activity, phytotoxicity rating SETVI",[4]; Rate 63 g ai/ha,60
same,"Post-emerge Herbicidal Activity, phytotoxicity rating SETVI",[4]; Rate 250 g ai/ha,70
same,"Post-emerge Herbicidal Activity, phytotoxicity rating DIGSA",[5]; Rate 63 g ai/ha,50
same,"Post-emerge Herbicidal Activity, phytotoxicity rating DIGSA",[5]; Rate 250 g ai/ha,95
same,"Post-emerge Herbicidal Activity, phytotoxicity rating CHEAL",[6]; Rate 63 g ai/ha,50
same,"Post-emerge Herbicidal Activity, phytotoxicity rating CHEAL",[6]; Rate 250 g ai/ha,80
same,"Post-emerge Herbicidal Activity, phytotoxicity rating ABUTH",[7]; Rate 63 g ai/ha,50
same,"Post-emerge Herbicidal Activity, phytotoxicity rating ABUTH",[7]; Rate 250 g ai/ha,90
same,"Post-emerge Herbicidal Activity, phytotoxicity rating AMARE",[8]; Rate 63 g ai/ha,50
same,"Post-emerge Herbicidal Activity, phytotoxicity rating AMARE",[8]; Rate 250 g ai/ha,100
same,"Post-emerge Herbicidal Activity, phytotoxicity rating CASOB",[9]; Rate 63 g ai/ha,20
same,"Post-emerge Herbicidal Activity, phytotoxicity rating CASOB",[9]; Rate 250 g ai/ha,70
same,"Post-emerge Herbicidal Activity, phytotoxicity rating AMBEL",[10]; Rate 63 g ai/ha,50
same,"Post-emerge Herbicidal Activity, phytotoxicity rating AMBEL",[10]; Rate 250 g ai/ha,40
same,Post-emerge phytotoxicity rating RICE (crop damage),[11]; Rate 63 g ai/ha,0
same,Post-emerge phytotoxicity rating RICE (crop damage),[11]; Rate 250 g ai/ha,20
same,Post-emerge phytotoxicity rating CORN (crop damage),[12]; Rate 63 g ai/ha,0
same,Post-emerge phytotoxicity rating CORN (crop damage),[12]; Rate 250 g ai/ha,40
same,"Pre-emerge herbicidal activity, phytotoxicity rating AMARE",[13]; 63 g ai/ha,95
same,"Pre-emerge herbicidal activity, phytotoxicity rating AMARE",[13]; 250 g ai/ha,100
same,"Pre-emerge phytotoxicity rating, crop damage RICE",[14]; 63 g ai/ha,0
same,"Pre-emerge phytotoxicity rating, crop damage RICE",[14]; 250 g ai/ha,0
same,"Pre-emerge phytotoxicity rating, crop damage CORN",[15]; 63 g ai/ha,0
same,"Pre-emerge phytotoxicity rating, crop damage CORN",[15]; 250 g ai/ha,0
same,"Pre-emerge herbicidal activity, phytotoxicity rating ECHCG",[16]; 63 g ai/ha,10
same,"Pre-emerge herbicidal activity, phytotoxicity rating ECHCG",[16]; 250 g ai/ha,30
same,"Pre-emerge herbicidal activity, phytotoxicity rating IPOHE",[17]; 63 g ai/ha,0
same,"Pre-emerge herbicidal activity, phytotoxicity rating IPOHE",[17]; 250 g ai/ha,30
same,"Pre-emerge herbicidal activity, phytotoxicity rating SORHA",[18]; 63 g ai/ha,0
same,"Pre-emerge herbicidal activity, phytotoxicity rating SORHA",[18]; 250 g ai/ha,80
same,"Pre-emerge herbicidal activity, phytotoxicity rating SETVI",[19]; 63 g ai/ha,0
same,"Pre-emerge herbicidal activity, phytotoxicity rating SETVI",[19]; 250 g ai/ha,40
same,"Pre-emerge herbicidal activity, phytotoxicity rating DIGSA",[20]; 63 g ai/ha,30
same,"Pre-emerge herbicidal activity, phytotoxicity rating DIGSA",[20]; 250 g ai/ha,90
same,"Pre-emerge herbicidal activity, phytotoxicity rating CHEAL",[21]; 63 g ai/ha,0
same,"Pre-emerge herbicidal activity, phytotoxicity rating CHEAL",[21]; 250 g ai/ha,90
same,"Pre-emerge herbicidal activity, phytotoxicity rating ABUTH",[22]; 63 g ai/ha,0
same,"Pre-emerge herbicidal activity, phytotoxicity rating ABUTH",[22]; 250 g ai/ha,80
same,"Pre-emerge herbicidal activity, phytotoxicity rating CASOB",[23]; 63 g ai/ha,0
same,"Pre-emerge herbicidal activity, phytotoxicity rating CASOB",[23]; 250 g ai/ha,0
